Each structure is given as a SMILES string.

For data set [1] the following is noted: in vivo.
Protocol: On day 21, samples were taken until 8 h post-dose; the day 22 predose sample was used as the 24 h sample of day 21. […] Peak plasma concentrations (Cmax), overall drug exposure (AUC), and terminal plasma half-life (t½) were calculated using noncompartmental methods using WinNonlin Professional software (version 4.1, Pharsight Corporation, St Louis, MO, USA). Pharmacokinetics analysis, with reference to possible interactions, was descriptive.
Data set [2] concerns intracellular aminopeptidases. As to conditions: cited from earlier work.
Details of data set [3]: method as in Talmadge et al, 1986; Ichinose et al, 2003. Particulars: ref Talmadge et al, 1986; Ichinose et al, 2003; cited from earlier work.

With `CC(C)C[C@@H](C(=O)N[C@H](C(=O)O)c1ccccc1)[C@H](O)C(=O)NO` [CHR-79888], the “overall exposure versus dose” value in data set [1] is “increased in a dose proportional manner”. In addition, in data set [2], the “inhibition of intracellular aminopeptidases” value is reported as “potent inhibitor”.
Regarding `CC(C)C[C@H](NC(=O)[C@@H](O)[C@H](N)Cc1ccccc1)C(=O)O` [bestatin], the immunostimulatory activity result in data set [3] is “immunostimulatory activity has been described”.

These data come from paper PMC2990605 (British Journal of Cancer, 2010).
